Values quoted from earlier work, collected in publication PMC7385171, “Molecular engineering of safe and efficacious oral basal insulin” (Nature Communications, 2020).

Details: man, 8-week study; oral for the analogue, SC for insulin glargine

Substance: insulin glargine
- coefficient of variation of fasting plasma glucose: 17.5%
